In ChEMBL document CHEMBL1201862, “PubChem BioAssay data set” (2004):
Calls of active or inactive are those of the source. Cut-off read from the data, not from the text of the source, for most assays here: actives have a measured EC50 and inactives only a lower limit.

Assays:
Cytochrome P450 3A4 = Cytochrome P450 3A4 (Homo sapiens, UniProt P08684); settings: Potency;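 note: confirmatory qHTS run detecting inhibitors and substrates of CYP3A4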
Large T antigen = Large T antigen (Simian virus 40, UniProt P03070); format: functional, Betapolyomavirus macacae;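 note: Confirmatory-stage PubChem screen for compounds that inhibit SV40 T antigen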
[1] = molecular target: T1, Rac GTPase-activating protein 1 (Homo sapiens, UniProt Q9H0H5); test: MgcRacGAP GTPase-activating activity inhibitors, confirmation, biochemical, ADP Hunter fluorescence, primary and confirmatory (AID 624330); format: functional
T1 sequence (Q9H0H5 whole entry): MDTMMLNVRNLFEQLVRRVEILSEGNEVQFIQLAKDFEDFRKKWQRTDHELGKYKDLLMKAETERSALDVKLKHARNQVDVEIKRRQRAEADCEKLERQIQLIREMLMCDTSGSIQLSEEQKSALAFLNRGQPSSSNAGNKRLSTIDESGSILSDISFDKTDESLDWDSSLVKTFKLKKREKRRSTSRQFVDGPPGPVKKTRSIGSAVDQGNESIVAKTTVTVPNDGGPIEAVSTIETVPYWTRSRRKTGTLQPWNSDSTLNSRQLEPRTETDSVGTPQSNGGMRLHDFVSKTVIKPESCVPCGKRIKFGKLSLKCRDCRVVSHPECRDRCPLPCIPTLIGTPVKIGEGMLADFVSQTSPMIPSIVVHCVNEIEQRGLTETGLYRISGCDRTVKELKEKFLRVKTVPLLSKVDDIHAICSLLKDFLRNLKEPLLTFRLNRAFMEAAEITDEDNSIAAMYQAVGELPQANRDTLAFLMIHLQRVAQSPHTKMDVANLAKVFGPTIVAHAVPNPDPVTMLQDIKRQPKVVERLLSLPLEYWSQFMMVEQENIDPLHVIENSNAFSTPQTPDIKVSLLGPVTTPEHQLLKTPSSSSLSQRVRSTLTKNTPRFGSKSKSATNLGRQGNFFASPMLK

Streptococcus = test: Group A Streptococcus viability loss, dose response, counter-screen for streptokinase expression inhibitor project, luminescence, BacTiterGlo (AID 1915); format: functional, organism-based;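 note: potency for reduction of bacterial viability or growth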
Streptokinase A = molecular target: T2, Streptokinase A (Streptococcus pyogenes serotype M1, UniProt P10520); test: S. pyogenes streptokinase expression inhibitors, potency, dose response, plasminogen activation absorbance, OD405 (AID 1914); format: functional, Streptococcus pyogenes M1 GAS;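 note: secreted streptokinase activity via plasminogen activation per viability signal from cell pellet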
T2 sequence (P10520 whole entry): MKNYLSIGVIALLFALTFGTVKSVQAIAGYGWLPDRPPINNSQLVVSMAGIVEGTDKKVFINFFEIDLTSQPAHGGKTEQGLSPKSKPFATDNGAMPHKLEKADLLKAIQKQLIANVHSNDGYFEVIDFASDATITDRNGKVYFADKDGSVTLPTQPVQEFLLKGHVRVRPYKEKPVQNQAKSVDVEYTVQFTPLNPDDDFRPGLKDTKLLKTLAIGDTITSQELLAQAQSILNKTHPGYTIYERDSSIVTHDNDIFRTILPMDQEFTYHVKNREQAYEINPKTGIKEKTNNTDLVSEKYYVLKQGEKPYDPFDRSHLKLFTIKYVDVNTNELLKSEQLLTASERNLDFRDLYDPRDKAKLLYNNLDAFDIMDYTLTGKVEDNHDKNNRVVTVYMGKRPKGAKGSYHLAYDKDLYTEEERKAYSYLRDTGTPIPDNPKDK

[2] = system: Streptococcus sp. 'group A'; test: growth inhibition of control SK(-) GAS strain, dose response, counter-screen for streptokinase expression inhibitor project, luminescence, kanamycin, BacTiterGlo, confirmation (AID 1900); format: functional, organism-based
[3] = molecular target: T3, Zinc finger protein mex-5 (Caenorhabditis elegans, UniProt Q9XUB2); test: MEX-5/TCR-2 RNA interaction inhibitors, dose response, biochemical, C. elegans, fluorescence polarization (AID 1960)
T3 sequence (Q9XUB2 whole entry): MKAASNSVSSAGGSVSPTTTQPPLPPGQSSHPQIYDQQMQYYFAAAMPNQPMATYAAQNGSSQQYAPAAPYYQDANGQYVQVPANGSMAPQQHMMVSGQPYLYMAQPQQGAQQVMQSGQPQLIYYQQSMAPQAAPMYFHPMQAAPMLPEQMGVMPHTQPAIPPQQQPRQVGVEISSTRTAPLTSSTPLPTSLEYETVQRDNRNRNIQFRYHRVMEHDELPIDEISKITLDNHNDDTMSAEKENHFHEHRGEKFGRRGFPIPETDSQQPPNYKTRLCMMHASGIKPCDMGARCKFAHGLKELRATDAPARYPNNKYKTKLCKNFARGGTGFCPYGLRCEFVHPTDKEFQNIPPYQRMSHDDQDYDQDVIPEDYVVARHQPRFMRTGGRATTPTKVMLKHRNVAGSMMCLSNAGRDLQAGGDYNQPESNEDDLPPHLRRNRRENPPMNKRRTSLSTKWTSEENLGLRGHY

[4] = molecular target: T4, RNA-binding protein pos-1 (Caenorhabditis elegans, UniProt G5EF15); test: inhibitors of POS-1/mex-3 RNA binding, dose response, biochemical, fluorescence polarization (AID 1964);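 note: purified POS-1 fused to maltose binding protein made in E. coli; potency of compounds blocking POS-1 binding to fluorescent RNA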
T4 sequence (G5EF15 whole entry): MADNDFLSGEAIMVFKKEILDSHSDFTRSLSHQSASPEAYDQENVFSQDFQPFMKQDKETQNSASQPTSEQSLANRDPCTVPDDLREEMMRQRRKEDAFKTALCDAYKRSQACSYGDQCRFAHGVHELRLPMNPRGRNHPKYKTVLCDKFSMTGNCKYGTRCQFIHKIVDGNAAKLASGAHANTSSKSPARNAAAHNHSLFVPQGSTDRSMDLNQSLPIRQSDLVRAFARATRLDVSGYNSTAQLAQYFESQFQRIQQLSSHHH

[5] = molecular target: T5, Heat shock factor protein 1 (Mus musculus, UniProt P38532); test: inhibition of MG132-induced HSE-luciferase signal, confirmation, cell-based, NIH3T3, luminescence, dose retest (AID 2382); format: functional;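 note: NIH3T3 fibroblasts with HSF1-driven luciferase reporter stressed by proteasome inhibitor MG132; luminescence from HSF1-driven luciferase expression after 8 hours of MG132 stress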
T5 sequence (P38532 whole entry): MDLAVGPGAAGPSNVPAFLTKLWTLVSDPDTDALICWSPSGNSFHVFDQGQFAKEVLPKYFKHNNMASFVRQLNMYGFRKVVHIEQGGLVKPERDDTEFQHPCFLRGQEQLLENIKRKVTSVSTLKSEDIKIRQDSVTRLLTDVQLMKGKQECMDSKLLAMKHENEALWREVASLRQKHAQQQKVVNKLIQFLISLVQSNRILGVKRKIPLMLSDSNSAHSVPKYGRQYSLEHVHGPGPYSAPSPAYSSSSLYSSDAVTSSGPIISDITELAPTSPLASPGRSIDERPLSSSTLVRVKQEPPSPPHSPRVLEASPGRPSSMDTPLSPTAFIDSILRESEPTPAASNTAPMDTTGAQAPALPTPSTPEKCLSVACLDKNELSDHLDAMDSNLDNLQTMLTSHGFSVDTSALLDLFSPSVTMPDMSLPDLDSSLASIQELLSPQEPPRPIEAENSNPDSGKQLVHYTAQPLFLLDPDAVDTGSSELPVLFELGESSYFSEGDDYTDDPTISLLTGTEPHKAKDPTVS

Vero = test: cells; format: functional; settings: Chlorocebus sabaeus
HEK293 = test: inhibitors of LMP1-driven NF-kB reporter, dose response, cell-based, HEK293, luciferase, cherry-pick (AID 588343); format: functional; settings: Homo sapiens
[6] = molecular target: Luciferin 4-monooxygenase (Photinus pyralis, UniProt P08659); test: firefly luciferase enzyme inhibitors, dose response, biochemical, luminescence (AID 1891)
[7] = Luminescence Cell-Based Dose Confirmation HTS to Identify Inhibitors of Platelet Dense Granule Release. [Related pubchem assays: 1663 (Primary HTS), 1678 (Summary of Project)]; format: functional

Chain of Large T antigen (P03070 whole entry): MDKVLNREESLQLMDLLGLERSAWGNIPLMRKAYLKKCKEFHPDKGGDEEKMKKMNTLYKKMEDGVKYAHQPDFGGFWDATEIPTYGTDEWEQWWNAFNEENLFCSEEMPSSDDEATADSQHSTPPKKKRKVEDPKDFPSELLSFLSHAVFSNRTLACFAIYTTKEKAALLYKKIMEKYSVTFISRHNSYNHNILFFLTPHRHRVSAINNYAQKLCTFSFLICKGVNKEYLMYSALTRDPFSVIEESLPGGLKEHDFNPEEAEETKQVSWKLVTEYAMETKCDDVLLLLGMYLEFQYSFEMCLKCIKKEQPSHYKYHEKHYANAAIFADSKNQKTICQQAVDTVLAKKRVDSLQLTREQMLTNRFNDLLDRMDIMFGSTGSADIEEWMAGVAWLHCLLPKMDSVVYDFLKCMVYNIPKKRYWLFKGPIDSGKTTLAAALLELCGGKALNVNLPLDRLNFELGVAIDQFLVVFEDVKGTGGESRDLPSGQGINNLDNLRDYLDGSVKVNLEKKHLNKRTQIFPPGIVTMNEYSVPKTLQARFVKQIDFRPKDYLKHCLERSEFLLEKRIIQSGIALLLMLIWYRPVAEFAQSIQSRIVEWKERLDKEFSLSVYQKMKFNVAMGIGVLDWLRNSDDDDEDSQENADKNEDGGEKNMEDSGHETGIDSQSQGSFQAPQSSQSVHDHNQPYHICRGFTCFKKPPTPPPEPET
Chain of Cytochrome P450 3A4 (P08684 whole entry): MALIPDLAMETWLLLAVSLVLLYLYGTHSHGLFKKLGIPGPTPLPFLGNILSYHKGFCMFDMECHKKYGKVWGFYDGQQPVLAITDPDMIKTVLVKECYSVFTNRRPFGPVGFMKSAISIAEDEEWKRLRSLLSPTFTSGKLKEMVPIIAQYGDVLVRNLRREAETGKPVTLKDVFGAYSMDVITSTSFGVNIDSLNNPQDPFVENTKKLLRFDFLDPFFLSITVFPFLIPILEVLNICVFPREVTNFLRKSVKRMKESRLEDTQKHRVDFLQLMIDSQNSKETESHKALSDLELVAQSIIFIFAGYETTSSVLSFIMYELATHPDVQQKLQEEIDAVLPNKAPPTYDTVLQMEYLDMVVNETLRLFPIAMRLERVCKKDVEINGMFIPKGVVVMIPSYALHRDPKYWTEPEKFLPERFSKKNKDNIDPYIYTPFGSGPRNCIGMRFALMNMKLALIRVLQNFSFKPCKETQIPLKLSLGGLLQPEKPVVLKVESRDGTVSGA
Chain of Luciferin 4-monooxygenase (P08659 whole entry): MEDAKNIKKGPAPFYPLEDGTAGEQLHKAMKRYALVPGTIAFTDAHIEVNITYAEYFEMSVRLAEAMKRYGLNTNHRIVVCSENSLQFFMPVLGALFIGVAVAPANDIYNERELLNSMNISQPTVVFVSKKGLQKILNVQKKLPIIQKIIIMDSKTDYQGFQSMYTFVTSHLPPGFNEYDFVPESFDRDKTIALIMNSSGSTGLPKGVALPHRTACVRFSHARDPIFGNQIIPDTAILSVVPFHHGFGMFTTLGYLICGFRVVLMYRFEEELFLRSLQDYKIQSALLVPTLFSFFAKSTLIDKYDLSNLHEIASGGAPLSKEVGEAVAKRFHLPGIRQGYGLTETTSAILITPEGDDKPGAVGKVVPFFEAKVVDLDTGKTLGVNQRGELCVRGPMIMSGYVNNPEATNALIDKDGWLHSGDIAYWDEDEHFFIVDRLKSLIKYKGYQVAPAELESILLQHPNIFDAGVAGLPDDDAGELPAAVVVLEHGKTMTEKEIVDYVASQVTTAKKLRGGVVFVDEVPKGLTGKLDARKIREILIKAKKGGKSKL

CC1CC2C3CCC4=CC(=O)C=C[C@@]4(C)[C@]3(F)C(O)C[C@]2(C)[C@]1(O)C(=O)COP(=O)(O)O (stereo partly specified)
AC50 (Cytochrome P450 3A4): 39.8 µM (inconclusive)

CCOc1cc(/C=C2/N=C(C)C(C(=O)OC)=C2O)ccc1O
IC50 (Large T antigen): 5.78 µM (active)
IC50 [1]: 26.3 µM (active)

CC(=O)O[C@H]1C[C@@]2(C)[C@@H](C[C@@H](O)[C@H]3[C@@]4(C)CC[C@@H](O)[C@@H](C)C4CC[C@@]32C)/C1=C(\CCC=C(C)C)C(=O)O (stereo partly specified)
EC50 (Streptococcus): 13.7 µM (active)
IC50 (Large T antigen): 24.7 µM (active)
EC50 (Streptokinase A): 1.78 µM (active)
EC50 [2]: 2.26 µM (active)

Cc1nnc(O)nc1Nc1ccc(O)cc1
IC50 (Large T antigen): 4.52 µM (active)

CCOC(=O)C1Nc2c(F)cc(C)cc2C2C=CCC12 (stereo unspecified)
EC50 [3]: > 300 µM (not active)
EC50 [4]: > 300 µM (not active)

COC(=O)[C@]1(C)CC[C@@]2(C)CC[C@@]3(C)C4=CCc5c(cc(O)c(O)c5C)[C@]4(C)CC[C@@]3(C)C2C1 (stereo partly specified)
AC50 (Cytochrome P450 3A4): 39.8 µM (inconclusive)

COc1ccc(C(=O)NNC(=O)c2cnccn2)cc1[N+](=O)[O-]
EC50 [5]: > 195 µM (not active)
EC50 [3]: 1.72 µM (active)
EC50 [4]: 25.3 µM (active)

NC(=S)NN=Cc1nccc2c(C(F)(F)F)cccc12
CC50 (Vero): 2.01 µM (active)
AC50 (HEK293): 1.77 µM (active)

COc1cccc(/C=N/Nc2ncnc(N)c2[N+](=O)[O-])c1OC
EC50 [3]: > 300 µM (inconclusive)
AC50 (HEK293): 3.91 µM (active)
EC50 [4]: 18.4 µM (active)

O=c1oc2ccccc2c(O)c1/C=N/c1ccccn1
AC50 (HEK293): 162 µM (active)
EC50 [6]: > 112 µM (not active)
EC50 [7]: > 112 µM (not active)

COc1ccc(C2C(C#N)=C(/N=C/N3CCN(C)CC3)OC3=C2C(=O)CC(C)(C)C3)cc1OC (stereo unspecified)
EC50 [3]: > 300 µM (not active)
EC50 [4]: > 300 µM (not active)

COc1ccc(/C=N/NC(=O)CCc2nnc(O)nc2O)cc1O
IC50 (Large T antigen): 28.9 µM (active)

CCCCNC(=O)C(c1ccc(OCC(=O)OC)c(C(=O)OC)c1)N(CCC1=CCCCC1)C(=O)CCCCCN1C(=O)NC(c2ccc(-c3ccccc3)cc2)C(C(=O)OCc2ccccc2)=C1C (stereo unspecified)
AC50 (Cytochrome P450 3A4): 2.51 µM (inconclusive)
